Measurements from paper PMC11802567, “Anti-cancer activity of synthetic gefitinib-1,2,3-triazole derivatives against Hela cells via induction of apoptosis” (Frontiers in Chemistry, 2025).
Values after ≈ are worked out from the molar mass of the structure shown. Like-named read-outs stand apart in the source and are kept apart here.

How the values were obtained:
[1] = tested on: Hela cells; test: MTT cell viability assay, Hela cells; type: cell-based; conditions: Homo sapiens, 48 h; for viability at 10 µM: mean ± SEM (n = 3)
[2] = tested on: Hela cells; test: Morphological profiles of Hela cells by microscope; type: cell-based, human; conditions: 0, 5, 10, 20 μM
Method: FIGURE 2 Anti-proliferative Effects of compound c13 on Hela cells. (A) Dose-dependent cytotoxicity of compound c13, assessed at concentrations ranging from 0 to 40 μM on HeLa cells. Cell viability was plotted against the logarithm of compound c13 concentrations (n = 3). (B) Morphological profiles of Hela cells were taken by microscope after treatment with compound c13 at different doses (0, 5, 10, and 20 μM) (n = 3). (C) Representative photomicrographs of plate colony formation assay data with compound c13 at different doses (0, 5, 10, and 20 μM) (n = 3).
(§1) To validate the impact of compound c13 on cell proliferation, plate clone formation assay was performed.

[3] = tested on: Hela cells; test: Cell cycle analysis by flow cytometry (PI); type: cell-based, human; conditions: 48 h
Method: To further evaluate the effect of compound c13 on the cell cycle, the cell cycle distributions of Hela cells after treatment of compound c13 were detected by flow cytometry.
Hela cells with a density of 1.5 × 10^5 cells/well were seeded in 12-well plates overnight. Different concentrations of compounds (0, 5, 10, and 20 μM) were added to treat the cells for 48 h. After treatment, the cells were washed with PBS and then the cells were fixed with 70% ethanol at −20°C overnight. Subsequently, the cells were stained with PI staining solution containing 10 μg/mL RNAase for 30 min in the dark. The data was collected by BD Accuri C6 Plus flow cytometry (BD Biosciences). All analyses were performed with FlowJo software.

[4] = tested on: Hela cells; test: Plate clone formation assay; type: cell-based, human; conditions: 0, 5, 10, 20 μM, dose-dependent
Method: as §1
Hela cells with a density of 5 × 10^2 cells/well were seeded in 6-well plates overnight. The cells were treated with different concentrations of compounds (0, 5, 10, and 20 μM) were added and continued to be cultured at 37°C with 5% CO2. When more than 50 cell clone formations were visible, the culture medium was discharged. Then, the cells were fixed with 2 mL of 4% paraformaldehyde for 15 min and stained with 2 mL of crystal violet solution at room temperature for 15 min. A microscope was used to take photos and count the number of cell clones.

[5] = tested on: Bax, Bcl-2, caspase 9, caspase 3, PARP1 in Hela cells; test: Western blot of apoptosis-associated proteins in Hela cells; type: cell-based, human; conditions: 10 and 20 μM
Text: To explore whether the induction of apoptosis caused by compound c13 was associated with the activation of the apoptosis-related protein, a western blot was used to detect the expression of the protein including Bax and Bcl-2. […] Furthermore, the ratio of Bax to Bcl-2 was raised after being treated with compound c13, leading to apoptosis in Hela cells.
To determine the potential function of compound c13 in the regulation of the apoptosis signaling pathway, downstream key proteins containing caspase 3, caspase 9, and PARP1 were detected by western blot. […] Besides, a corresponding increase in the levels of cleaved-caspase 3, and cleaved-PARP1 was observed (Figure 6).
Whole cell extracts were prepared by lysing cells on ice for 30 min using RIPA lysis buffer (Beyotime Biotechnology, Shanghai, China). Following centrifugation at 12, 000 g for 15 min at 4°C, the supernatants were collected. The protein content concentrations of samples were determined according to the manufacturer’s protocol for the BCA protein assay kit (Thermo Scientific, Rockford, IL, United States).
Equal amounts of protein were resolved using sodium dodecyl sulfate polyacrylamide gel electrophoresis (SDS-PAGE) and subsequently transferred to a 0.2 μm nitrocellulose membrane. The membranes underwent blocking for a minimum of 1 h in 5% skimmed milk diluted in TBST. Subsequently, the blots were incubated overnight at 4°C with primary antibodies. Primary antibodies used were include, Bcl-2 (ABclonal, Wuhan, China), Bax (Wanleibio, Shenyang, China), Caspase 9/p35/p10 antibody (Proteintech, Wuhan, China), Caspase 3/p17/p19 (Proteintech, Wuhan, China), PARP-1 (Proteintech, Wuhan, China), β-actin (Sigma-Aldrich, St Louis, MO, United States). Following incubation, the membranes were washed three times with TBST buffer and then incubated with secondary antibodies (Kangchen Biotechnology, Shanghai, China) for 1 h at room temperature. Subsequently, the blots were washed three times with TBST buffer and developed using an enhanced chemiluminescence reagent (Millipore Corporation, Bedford, MA, United States). The intensity of each protein band was quantitatively analyzed using ImageJ software.

[6] = tested on: NIH3T3 cells; test: MTT cell viability assay, NIH3T3 cells; type: cell-based; conditions: Mus musculus, 48 h, tested 0-40 μM
Method: (§2) To define the effects of compound c13 on cancer cell proliferation, the half-maximal inhibitory concentration (IC50) of compound c13 in Hela cells was calculated. Hela cells were treated with compound c13 at different concentrations (0 μM, 1 μM, 5 μM, 10 μM, 20 μM, and 40 μM) respectively for 48 h, and the cell viability was detected using the MTT method. […]. […] In contrast, its effect on the proliferation of HEK293T and NIH3T3 cells was minimal, with both IC50 values exceeding 100 μM.
(§3) Figure S1. The effect of compound c13 on the survival rate of HEK293T, NIH3T3, and Hela cells. compound c13 (0, 10, 20, and 40 μM) was used to treat HEK293T, NIH3T3, and Hela cells for 48 hours, and the cell survival rate was detected using the MTT method (n=3).

[7] = tested on: HEK293T cells; test: MTT cell viability assay, HEK293T cells; type: cell-based; conditions: Homo sapiens, HEK-293T, 48 h, tested 0-40 μM
Method: as §2, §3

[8] = tested on: Hela cells; test: Apoptosis assay, Annexin V-FITC/PI flow cytometry; type: cell-based, human; conditions: 20 μM, 48 h
Method: To assess whether the anti-proliferative effects of compound c13 on Hela cells were associated with apoptosis, cell apoptosis after treatment of compound c13 was measured using Annexin V-FITC and propidium iodide (PI) staining by flow cytometer. […] Compared with the normal control group, compound c13 at 20 μM markedly raised the apoptotic ratio of Hela cells to 62.03% ± 9.48%.
Hela cells with a density of 1.5 × 10^5 cells/well were seeded in 12-well plates overnight for adhesion. The cells were treated with different concentrations of compounds (0, 5, 10, and 20 μM) for 48 h. After treatment, the cells were washed with PBS and stained with Annexin V-FITC and Propidium Iodide (PI) for 15 min in the dark. Cell apoptosis rate was detected by BD Accuri C6 Plus flow cytometry (BD Biosciences) and all analyses were performed with FlowJo software.

[9] = tested on: Hela cells; design: method as in Khanam et al., 2019; conditions: ref Khanam et al., 2019; cited from earlier work
[10] = tested on: Hela cells; design: method as in Huang et al., 2022; conditions: 72-h treatment; ref Huang et al., 2022; read-out: IC50, cytotoxicity to Hela cells; cited from earlier work

With COc1cccc2c1C(=O)c1c(O)c3c(c(O)c1C2=O)C[C@@](O)(C(=O)CO)C[C@@H]3O[C@H]1C[C@H](N)[C@H](O)[C@H](C)O1 [Doxorubicin, reference compound] the viability at 10 µM [1] was 11.9 ± 1.2%.

Compound COc1cc2ncnc(Nc3ccc(F)c(Cl)c3)c2cc1OCCCN1CCOCC1 [Gefitinib] has a viability at 10 µM [1] of 75.9 ± 2.88%.

For COc1cc2ncnc(Nc3cccc(-c4cn(Cc5cc(Br)cc(Br)c5)nn4)c3)c2cc1OCCCN1CCOCC1 [c13, N-(3-(1-(3,5-dibromobenzyl)-1H-1,2,3-triazol-4-yl)phenyl)-7-methoxy-6-(3-morpholinopropoxy)quinazolin-4-amine], the “Morphological changes of Hela cells” value [2] was “severe morphological changes”, the viability at 10 µM [1] was 32.6 ± 8.61% and the IC50 ([1]; read-out: IC50 against Hela cells) was 5.66 ± 0.35 µM. The “Proportion of the G1 phase” value ([3]; 20 μM, printed as % of control group) was 52.05% ± 2.85%, the “Percentage of cells in the G2/M phase” value ([3]; 10 and 20 μM) was “upregulated” and the “Colony formation ability of Hela cells” value [4] was “significantly inhibited the colony formation ability”. The “Level of cleaved-PARP1” value [5] was “increase”, the “Level of cleaved-caspase 3” value [5] was “increase” and the “Level of cleaved-caspase 9” value [5] was “tendency of upregulation but had no significant difference”. The “Protein expression of pro-apoptotic Bax” value [5] was “enhanced”, the “Protein level of anti-apoptotic Bcl-2” value [5] was “diminished” and the “Ratio of Bax to Bcl-2” value [5] was “raised”. For the same compound, the “Protein level of full-length PARP1” value ([5]; vs control group) was “decreased”, the “Protein level of full-length caspase 3” value ([5]; vs control group) was “decreased” and the “Protein level of full-length caspase 9” value ([5]; vs control group) was “decreased”. For the same compound, the IC50 [6] was greater than 100 µM, the IC50 [7] was greater than 100 µM and the “Apoptotic ratio of Hela cells” value [8] was 62.03% ± 9.48%.

In the case of Nc1ccc(-c2nnc(CN3CCN(C(c4ccccc4)c4ccccc4)CC3)o2)cc1 [4d, N-benzhydryl-4-((5-(4-aminophenyl)-1,3,4-oxadiazol-2-yl)methyl)piperazine], the “IC50, HeLa cells” value [9] is given as 28.13 ± 0.21 µg/mL (≈ 66.1 µM).

For C[C@]12CC[C@@H]3c4ccc(O)cc4CC[C@H]3[C@@H]1CC[C@@H]2O [β-estradiol], the IC50 [10] is given as 18.7 ± 1.57 µM.
